# Starred links: 1 amine or outer side, 2 acyl side, 3 side chain; linkers in the order of their positions; H or OH if unused. Positions of bridges follow the written chain, without caps; N, C: chain ends. Non-standard residues stand in square brackets, D forms with d. Residues, ends and D or L forms follow the SMILES beside them. *: point of attachment. hPhe(3-Cl-4-CF3) = N[C@@H](CCc1ccc(C(F)(F)F)c(Cl)c1)C(=O)O; hPhe(3-F,4-CF3) = N[C@@H](CCc1ccc(C(F)(F)F)c(F)c1)C(=O)O; X38 = CN([C@@H](Cc1cccc(OC(F)(F)F)c1)C(=O)[*:2])[*:1]; NMePhe(3-CF3) = CN[C@@H](Cc1cccc(C(F)(F)F)c1)C(=O)O; NMePhe(4-CF3) = CN[C@@H](Cc1ccc(C(F)(F)F)cc1)C(=O)O; NMePhe(3-Br) = CN[C@@H](Cc1cccc(Br)c1)C(=O)O; NMePhe(3-Me) = CN[C@@H](Cc1cccc(C)c1)C(=O)O; NMePhe(2-Cl) = CN[C@@H](Cc1ccccc1Cl)C(=O)O; NMePhe(3-F) = CN[C@@H](Cc1cccc(F)c1)C(=O)O; NMeAla(cPent) = CN[C@@H](CC1CCCC1)C(=O)O; NMePhe(2-F) = CN[C@@H](Cc1ccccc1F)C(=O)O; NMeGly(cPent) = CN[C@H](C(=O)O)C1CCCC1; NMeCha = CN[C@@H](CC1CCCCC1)C(=O)O; NMeGly(cPr) = CN[C@H](C(=O)O)C1CC1; NMehLeu = CN[C@@H](CCC(C)C)C(=O)O; NMeD = CN[C@@H](CC(=O)O)C(=O)O; NMeL = CN[C@@H](CC(C)C)C(=O)O; NMeV = CN[C@H](C(=O)O)C(C)C; d(β3hA) = C[C@@H](N)CC(=O)O; NMeS = CN[C@@H](CO)C(=O)O; NMeA = CN[C@@H](C)C(=O)O; Piperidide = C1CCN(*)CC1; dNMeA = CN[C@H](C)C(=O)O; Ac5c = NC1(C(=O)O)CCCC1; Aze = O=C(O)[C@@H]1CCN1; CH2CMe2OH = CC(C)(O)C*; Aib = CC(C)(N)C(=O)O; Isopentyl = CC(C)CC*; Sar = CNCC(=O)O
# Biological target: T1, Kras and SOS1 (biotin-tagged human Kras loaded with GDP, His-tagged human SOS1) (Homo sapiens, UniProt P01116, G12D)
# T1 construct: made in house; host or cells: E. coli (stated for Kras only)
# T1 sequence (P01116 1-188 isoform P01116-2 G12D): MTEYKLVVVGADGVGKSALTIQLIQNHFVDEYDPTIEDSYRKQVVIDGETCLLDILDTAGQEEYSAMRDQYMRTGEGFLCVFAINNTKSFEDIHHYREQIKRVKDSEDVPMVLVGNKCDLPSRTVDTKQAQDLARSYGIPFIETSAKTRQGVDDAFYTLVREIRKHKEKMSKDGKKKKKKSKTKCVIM
# Assay: Protein-protein interaction inhibition between Kras and SOS1 (KrasGl2D-SOS PPI) using AlphaScreen
# Format: binding
# Details: AlphaScreen; biotin-tagged human Kras loaded with GDP, His-tagged human SOS1; read-out: KRAS G12D-SOS PPI IC50
# Procedure, shortened: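 Energy transfer from nickel-chelate donor beads bound to His-SOS1 to streptavidin acceptor beads bound to biotin-Kras, expressed in E. coli and loaded with GDP after purification, was monitored. Donors were excited at 680 nm; singlet oxygen reaching acceptors gave emission read at 520-620 nm.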
row,SMILES,IC50 [nM]
1,CC[C@H](C)[C@@H]1NC(=O)[C@H](CC(C)C)N(C)C(=O)C[C@@H](C(=O)N2CCCCC2)N(C)C(=O)[C@H](CC(C)C)N(C)C(=O)C(C)(C)NC(=O)[C@H](COCC(C)(C)O)N(C)C(=O)[C@H](CCc2ccc(C(F)(F)F)c(Cl)c2)NC(=O)CN(C)C(=O)[C@H](COCCC(C)C)N(C)C(=O)CN(C)C(=O)CN(C)C1=O [Compound 1541] ([NMeL]I[Sar][Sar][NMeS](Isopentyl)[Sar][hPhe(3-Cl-4-CF3)][NMeS](CH2CMe2OH)[Aib][NMeL][NMeD]-Piperidide; lactam N-11),4
2,CC[C@H](C)[C@@H]1NC(=O)[C@H](CC(C)C)N(C)C(=O)C[C@@H](C)NC(=O)[C@H](C2CCCC2)N(C)C(=O)C2(CCCC2)NC(=O)[C@@H]2CCCN2C(=O)[C@H](CCc2ccc(C(F)(F)F)c(Cl)c2)NC(=O)[C@@H](C)N(C)C(=O)[C@H](Cc2ccc(C(F)(F)F)cc2)N(C)C(=O)CN(C)C(=O)CN(C)C1=O [Compound 1542] (cyclo([Ac5c][NMeGly(cPent)][d(β3hA)][NMeL]I[Sar][Sar][NMePhe(4-CF3)][dNMeA][hPhe(3-Cl-4-CF3)]P)),170
3,CC[C@H](C)[C@@H]1NC(=O)[C@H](C)N(C)C(=O)C[C@@H](C)NC(=O)[C@H](C2CCCC2)N(C)C(=O)C2(CCCC2)NC(=O)[C@@H]2CCCN2C(=O)[C@H](CCc2ccc(C(F)(F)F)c(Cl)c2)NC(=O)[C@H]2CCCN2C(=O)[C@H](CC2CCCCC2)N(C)C(=O)CN(C)C(=O)CN(C)C1=O [Compound 1543] (cyclo([Ac5c][NMeGly(cPent)][d(β3hA)][NMeA]I[Sar][Sar][NMeCha][dP][hPhe(3-Cl-4-CF3)]P)),160
4,"CC[C@H](C)[C@@H]1NC(=O)[C@H](CC(C)C)N(C)C(=O)C[C@@H](C)NC(=O)[C@H](CC(C)C)N(C)C(=O)C2(CCCC2)NC(=O)[C@@H]2CCN2C(=O)[C@H](CCc2ccc(C(F)(F)F)c(F)c2)NC(=O)CN(C)C(=O)[C@H](CC2CCCCC2)N(C)C(=O)CN(C)C(=O)CN(C)C1=O [Compound 1545] (cyclo([Ac5c][NMeL][d(β3hA)][NMeL]I[Sar][Sar][NMeCha][Sar][hPhe(3-F,4-CF3)][Aze]))",42
5,CC[C@H](C)[C@@H]1NC(=O)[C@H](CC(C)C)N(C)C(=O)C[C@@H](C)NC(=O)[C@H](CC(C)C)N(C)C(=O)C(C)(C)NC(=O)[C@H](COCC(C)(C)O)N(C)C(=O)[C@H](CCc2ccc(C(F)(F)F)c(Cl)c2)NC(=O)CN(C)C(=O)[C@H](COCCC(C)C)N(C)C(=O)CN(C)C(=O)CN(C)C1=O [Compound 1546] (cyclo([Aib][NMeL][d(β3hA)][NMeL]I[Sar][Sar][NMeS](Isopentyl)[Sar][hPhe(3-Cl-4-CF3)][NMeS](CH2CMe2OH))),40
6,CC[C@H](C)[C@@H]1NC(=O)[C@H](CC(C)C)N(C)C(=O)C[C@@H](C)NC(=O)[C@H](C(C)C)N(C)C(=O)C2(CCCC2)NC(=O)[C@@H]2CCCN2C(=O)[C@H](CCc2ccc(C(F)(F)F)c(Cl)c2)NC(=O)CN(C)C(=O)[C@H](Cc2cccc(C)c2)N(C)C(=O)CN(C)C(=O)CN(C)C1=O [Compound 1547] (cyclo([Ac5c][NMeV][d(β3hA)][NMeL]I[Sar][Sar][NMePhe(3-Me)][Sar][hPhe(3-Cl-4-CF3)]P)),22
7,CC[C@H](C)[C@@H]1NC(=O)[C@H](CC(C)C)N(C)C(=O)C[C@@H](C(=O)N2CCCCC2)N(C)C(=O)[C@H](C(C)C)N(C)C(=O)C2(CCCC2)NC(=O)[C@@H]2CCCN2C(=O)[C@H](CCc2ccc(C(F)(F)F)c(Cl)c2)NC(=O)CN(C)C(=O)[C@H](CC2CCCCC2)N(C)C(=O)[C@@H]2CCN2C(=O)[C@H](CC2CCCC2)N(C)C1=O [Compound 1552] ([NMeL]I[NMeAla(cPent)][Aze][NMeCha][Sar][hPhe(3-Cl-4-CF3)]P[Ac5c][NMeV][NMeD]-Piperidide; lactam N-11),61
8,CC[C@H](C)[C@@H]1NC(=O)[C@H](CC(C)C)N(C)C(=O)C[C@@H](C(=O)N2CCCCC2)N(C)C(=O)[C@H](C(C)C)N(C)C(=O)C2(CCCC2)NC(=O)[C@@H]2CCCN2C(=O)[C@H](CCc2ccc(C(F)(F)F)c(Cl)c2)NC(=O)CN(C)C(=O)[C@H](CC2CCCCC2)N(C)C(=O)[C@@H]2CCN2C(=O)[C@H](C2CC2)N(C)C1=O [Compound 1553] ([NMeL]I[NMeGly(cPr)][Aze][NMeCha][Sar][hPhe(3-Cl-4-CF3)]P[Ac5c][NMeV][NMeD]-Piperidide; lactam N-11),12
9,CC[C@H](C)[C@@H]1NC(=O)[C@H](CC(C)C)N(C)C(=O)C[C@@H](C)NC(=O)[C@H](C(C)C)N(C)C(=O)C2(CCCC2)NC(=O)[C@@H]2CCCN2C(=O)[C@H](CCc2ccc(C(F)(F)F)c(Cl)c2)NC(=O)CN(C)C(=O)[C@H](Cc2cccc(F)c2)N(C)C(=O)CN(C)C(=O)CN(C)C1=O [Compound 1556] (cyclo([Ac5c][NMeV][d(β3hA)][NMeL]I[Sar][Sar][NMePhe(3-F)][Sar][hPhe(3-Cl-4-CF3)]P)),17
10,CC[C@H](C)[C@@H]1NC(=O)[C@H](CC(C)C)N(C)C(=O)C[C@@H](C)NC(=O)[C@H](C(C)C)N(C)C(=O)C2(CCCC2)NC(=O)[C@@H]2CCCN2C(=O)[C@H](CCc2ccc(C(F)(F)F)c(Cl)c2)NC(=O)CN(C)C(=O)[C@H](Cc2cccc(OC(F)(F)F)c2)N(C)C(=O)CN(C)C(=O)CN(C)C1=O [Compound 1573] (cyclo([Ac5c][NMeV][d(β3hA)][NMeL]I[Sar][Sar][X38][Sar][hPhe(3-Cl-4-CF3)]P)),57
11,CC[C@H](C)[C@@H]1NC(=O)[C@H](CC(C)C)N(C)C(=O)C[C@@H](C)NC(=O)[C@H](C(C)C)N(C)C(=O)C2(CCCC2)NC(=O)[C@@H]2CCCN2C(=O)[C@H](CCc2ccc(C(F)(F)F)c(Cl)c2)NC(=O)CN(C)C(=O)[C@H](Cc2cccc(C(F)(F)F)c2)N(C)C(=O)CN(C)C(=O)CN(C)C1=O [Compound 1575] (cyclo([Ac5c][NMeV][d(β3hA)][NMeL]I[Sar][Sar][NMePhe(3-CF3)][Sar][hPhe(3-Cl-4-CF3)]P)),45
12,CC[C@H](C)[C@@H]1NC(=O)[C@H](CC(C)C)N(C)C(=O)C[C@@H](C(=O)N2CCCCC2)N(C)C(=O)[C@H](C(C)C)N(C)C(=O)C2(CCCC2)NC(=O)[C@@H]2CCCN2C(=O)[C@H](CCc2ccc(C(F)(F)F)c(Cl)c2)NC(=O)CN(C)C(=O)[C@H](CC2CCCCC2)N(C)C(=O)[C@@H]2CCN2C(=O)[C@H](CCC(C)C)N(C)C1=O [Compound 1577] ([NMeL]I[NMehLeu][Aze][NMeCha][Sar][hPhe(3-Cl-4-CF3)]P[Ac5c][NMeV][NMeD]-Piperidide; lactam N-11),50
13,CC[C@H](C)[C@@H]1NC(=O)[C@H](C)N(C)C(=O)C[C@@H](C(=O)N2CCCCC2)N(C)C(=O)[C@H](C(C)C)N(C)C(=O)C2(CCCC2)NC(=O)[C@@H]2CCCN2C(=O)[C@H](CCc2ccc(C(F)(F)F)c(Cl)c2)NC(=O)CN(C)C(=O)[C@H](CC2CCCCC2)N(C)C(=O)[C@@H]2CCN2C(=O)[C@H](CC2CCCCC2)N(C)C1=O [Compound 1580] ([NMeA]I[NMeCha][Aze][NMeCha][Sar][hPhe(3-Cl-4-CF3)]P[Ac5c][NMeV][NMeD]-Piperidide; lactam N-11),11
14,CC[C@H](C)[C@@H]1NC(=O)[C@H](CC(C)C)N(C)C(=O)C[C@@H](C)NC(=O)[C@H](C(C)C)N(C)C(=O)C2(CCCC2)NC(=O)[C@@H]2CCCN2C(=O)[C@H](CCc2ccc(C(F)(F)F)c(Cl)c2)NC(=O)CN(C)C(=O)[C@H](CC2CCCCC2)N(C)C(=O)[C@@H]2CCN2C(=O)[C@H](CC2CCCCC2)N(C)C1=O [Compound 1581] (cyclo([Ac5c][NMeV][d(β3hA)][NMeL]I[NMeCha][Aze][NMeCha][Sar][hPhe(3-Cl-4-CF3)]P)),230
15,CC[C@H](C)[C@@H]1NC(=O)[C@H](CC(C)C)N(C)C(=O)C[C@@H](C)NC(=O)[C@H](C(C)C)N(C)C(=O)C2(CCCC2)NC(=O)[C@@H]2CCCN2C(=O)[C@H](CCc2ccc(C(F)(F)F)c(Cl)c2)NC(=O)CN(C)C(=O)[C@H](COc2ccccc2Cl)N(C)C(=O)CN(C)C(=O)CN(C)C1=O [Compound 1582],35
16,CC[C@H](C)[C@@H]1NC(=O)[C@H](CC(C)C)N(C)C(=O)C[C@@H](C)NC(=O)[C@H](C(C)C)N(C)C(=O)C2(CCCC2)NC(=O)[C@@H]2CCCN2C(=O)[C@H](CCc2ccc(C(F)(F)F)c(Cl)c2)NC(=O)CN(C)C(=O)[C@H](Cc2ccccc2F)N(C)C(=O)CN(C)C(=O)CN(C)C1=O [Compound 1585] (cyclo([Ac5c][NMeV][d(β3hA)][NMeL]I[Sar][Sar][NMePhe(2-F)][Sar][hPhe(3-Cl-4-CF3)]P)),43
17,CC[C@H](C)[C@@H]1NC(=O)[C@H](CC(C)C)N(C)C(=O)C[C@@H](C)NC(=O)[C@H](C(C)C)N(C)C(=O)C2(CCCC2)NC(=O)[C@@H]2CCCN2C(=O)[C@H](CCc2ccc(C(F)(F)F)c(Cl)c2)NC(=O)CN(C)C(=O)[C@H](Cc2cccc(Br)c2)N(C)C(=O)CN(C)C(=O)CN(C)C1=O [Compound 1587] (cyclo([Ac5c][NMeV][d(β3hA)][NMeL]I[Sar][Sar][NMePhe(3-Br)][Sar][hPhe(3-Cl-4-CF3)]P)),31
18,CC[C@H](C)[C@@H]1NC(=O)[C@H](CC(C)C)N(C)C(=O)C[C@@H](C)NC(=O)[C@H](C(C)C)N(C)C(=O)C2(CCCC2)NC(=O)[C@@H]2CCCN2C(=O)[C@H](CCc2ccc(C(F)(F)F)c(Cl)c2)NC(=O)CN(C)C(=O)[C@H](Cc2ccccc2Cl)N(C)C(=O)CN(C)C(=O)CN(C)C1=O [Compound 1591] (cyclo([Ac5c][NMeV][d(β3hA)][NMeL]I[Sar][Sar][NMePhe(2-Cl)][Sar][hPhe(3-Cl-4-CF3)]P)),97
19,CC[C@H](C)[C@@H]1NC(=O)[C@H](C)N(C)C(=O)C[C@@H](C(=O)N2CCCCC2)N(C)C(=O)[C@H](C(C)C)N(C)C(=O)C2(CCCC2)NC(=O)[C@@H]2CCCN2C(=O)[C@H](CCc2ccc(C(F)(F)F)c(Cl)c2)NC(=O)CN(C)C(=O)[C@H](CC2CCCCC2)N(C)C(=O)[C@@H]2CCN2C(=O)[C@H](CCC(C)C)N(C)C1=O [Compound 1595] ([NMeA]I[NMehLeu][Aze][NMeCha][Sar][hPhe(3-Cl-4-CF3)]P[Ac5c][NMeV][NMeD]-Piperidide; lactam N-11),15

# Source: patent US12371454B2, “Cyclic peptide compound having Kras inhibitory action” (priority 2019, dated 2025)
